Experimental data taken from PubChem BioAssay AID248 (DTP/NCI, 2004).
Toxic doses and inconclusive results are not listed. No stated cut-off is given here; in the data, active means T/C of 150% or more; inactive means T/C below 125%.

System: L1210 leukemia ip in BDF1 mice, survival T/C
Assay: NCI In Vivo Anticancer Drug Screen. Data for tumor model L1210 Leukemia (intraperitoneal) in B6D2F1 (BDF1) mice
Conditions: endpoint: mean survival time, higher = longer survival
Procedure, shortened: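 Read-out is survival time, reported as the treated-group measurement over the vehicle-control measurement.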

[1] = dose: 100.0 mg/kg/injection, schedule: Q01DX009 (ip), vehicle: Klucel (hydroxypropylcellulose) (HPC)
[2] = dose: 200.0 mg/kg/injection, schedule: Q01DX009 (ip), vehicle: Klucel (hydroxypropylcellulose) (HPC)
[3] = dose: 400.0 mg/kg/injection, schedule: Q01DX009 (ip), vehicle: Klucel (hydroxypropylcellulose) (HPC)
[4] = dose: 100.0 mg/kg/injection, schedule: Q04DX003 (ip), vehicle: Klucel (hydroxypropylcellulose) (HPC)
[5] = dose: 200.0 mg/kg/injection, schedule: Q04DX003 (ip), vehicle: Klucel (hydroxypropylcellulose) (HPC)
[6] = dose: 400.0 mg/kg/injection, schedule: Q04DX003 (ip), vehicle: Klucel (hydroxypropylcellulose) (HPC)
[7] = dose: 100.0 mg/kg/injection, schedule: Q01DX001 (ip), vehicle: saline
[8] = dose: 200.0 mg/kg/injection, schedule: Q01DX001 (ip), vehicle: saline
[9] = dose: 400.0 mg/kg/injection, schedule: Q01DX001 (ip), vehicle: saline
[10] = dose: 100.0 mg/kg/injection, schedule: Q04DX002 (ip), vehicle: Klucel (hydroxypropylcellulose) (HPC)
[11] = dose: 200.0 mg/kg/injection, schedule: Q04DX002 (ip), vehicle: Klucel (hydroxypropylcellulose) (HPC)
[12] = dose: 400.0 mg/kg/injection, schedule: Q04DX002 (ip), vehicle: Klucel (hydroxypropylcellulose) (HPC)
[13] = dose: 100.0 mg/kg/injection, schedule: Q01DX001 (ip), vehicle: carboxymethylcellulose (CMC)
[14] = dose: 200.0 mg/kg/injection, schedule: Q01DX001 (ip), vehicle: carboxymethylcellulose (CMC)
[15] = dose: 400.0 mg/kg/injection, schedule: Q01DX001 (ip), vehicle: carboxymethylcellulose (CMC)

Measured: T/C

CC(C)(C)NC(=O)Oc1ccccc1C(N)=O
inactive: [1] 95 % of control | [2] 95 % of control | [3] 94 % of control

Cc1ccnc2c(N)cccc12
inactive: dose: 75.0 mg/kg/injection, schedule: Q01DX001 (ip), vehicle: saline 98 % of control

CC1CCCC[N-]1.CC1CCCC[N-]1.[Cl][Pt+2][Cl] (stereo not drawn)
inactive: [1] 97 % of control | [4] 98 % of control | [2] 102 % of control | [5] 96 % of control | [6] 102 % of control

Cc1cc(S(=O)(=O)NO)c(N)cc1Cl
inactive: dose: 50.0 mg/kg/injection, schedule: Q01DX009 (ip), vehicle: Klucel (hydroxypropylcellulose) (HPC) 108 % of control | [1] 99 % of control | [2] 99 % of control

CC(C)C1=NNC(=O)C1(C)C
inactive: [7] 105 % of control | [8] 108 % of control | [9] 108 % of control

COc1ccc(/C=C2\N=C(c3cccc(Cl)c3)OC2=O)cc1OC
inactive: dose: 100.0 mg/kg/injection, schedule: Q01DX009 (ip), vehicle: saline with Tween-80 105 % of control | [10] 89 % of control | dose: 200.0 mg/kg/injection, schedule: Q01DX009 (ip), vehicle: saline with Tween-80 97 % of control | [11] 92 % of control | dose: 400.0 mg/kg/injection, schedule: Q01DX009 (ip), vehicle: saline with Tween-80 105 % of control | [12] 86 % of control

O=C(COc1cc(Cl)c(Cl)cc1Cl)Nc1ccccc1Br
inactive: [10] 95 % of control | [11] 98 % of control | [12] 106 % of control

CCCS(=O)(=O)N(CC)CC
inactive: dose: 100.0 mg/kg/injection, schedule: Q04DX002 (ip), vehicle: saline with Tween-80 97 % of control | dose: 200.0 mg/kg/injection, schedule: Q04DX002 (ip), vehicle: saline with Tween-80 101 % of control | dose: 400.0 mg/kg/injection, schedule: Q04DX002 (ip), vehicle: saline with Tween-80 87 % of control

O=C1OCC/C1=C1/CCOC1
inactive: dose: 50.0 mg/kg/injection, schedule: Q01DX009 (ip), vehicle: saline 91 % of control | dose: 100.0 mg/kg/injection, schedule: Q01DX009 (ip), vehicle: saline 102 % of control

O=C(O)C(Cc1ccsc1)C(=O)O
inactive: [7] 101 % of control | [8] 93 % of control

O=C(Nc1ccc(Cl)cc1)Nc1cccc(F)c1
inactive: [1] 90 % of control | [2] 94 % of control | [3] 110 % of control

CC(C)(C)C1CCC(NN)CC1 (stereo not drawn)
inactive: dose: 0.78 mg/kg/injection, schedule: Q01DX009 (ip), vehicle: saline 101 % of control | dose: 1.56 mg/kg/injection, schedule: Q01DX009 (ip), vehicle: saline 100 % of control | dose: 3.12 mg/kg/injection, schedule: Q01DX009 (ip), vehicle: saline 101 % of control | dose: 6.25 mg/kg/injection, schedule: Q01DX009 (ip), vehicle: saline 95 % of control | dose: 12.5 mg/kg/injection, schedule: Q04DX003 (ip), vehicle: saline 98 % of control | dose: 25.0 mg/kg/injection, schedule: Q04DX003 (ip), vehicle: saline 98 % of control | dose: 50.0 mg/kg/injection, schedule: Q01DX001 (ip), vehicle: saline 92 % of control

CC(=O)C1CCCC1=O (stereo not drawn)
inactive: dose: 100.0 mg/kg/injection, schedule: Q01DX001 (ip), vehicle: acetone 103 % of control | dose: 100.0 mg/kg/injection, schedule: Q04DX003 (ip), vehicle: acetone 97 % of control | dose: 200.0 mg/kg/injection, schedule: Q01DX001 (ip), vehicle: acetone 97 % of control | dose: 200.0 mg/kg/injection, schedule: Q04DX003 (ip), vehicle: acetone 97 % of control | dose: 400.0 mg/kg/injection, schedule: Q01DX001 (ip), vehicle: acetone 95 % of control | dose: 400.0 mg/kg/injection, schedule: Q04DX003 (ip), vehicle: acetone 95 % of control

O=C1Nc2ccc(Br)cc2C1=Nc1cccnc1
inactive: [10] 116 % of control | [11] 95 % of control | [12] 116 % of control

CCOc1ccc(NC(=O)OCCOc2ccccc2)cc1
inactive: [1] 104 % of control | [2] 100 % of control | [3] 94 % of control

NC(=O)C(=O)NO
inactive: [7] 97 % of control | [8] 106 % of control | [9] 105 % of control

O=C(c1ccc(O)c(C(=O)O)c1)c1ccc(O)c(C(=O)O)c1
inactive: [13] 95 % of control | [14] 95 % of control | [15] 101 % of control

N=c1ccccn1CC(O)COc1cccc([N+](=O)[O-])c1 (stereo not drawn)
inactive: dose: 100.0 mg/kg/injection, schedule: Q04DX002 (ip), vehicle: other 97 % of control | dose: 200.0 mg/kg/injection, schedule: Q04DX002 (ip), vehicle: other 93 % of control

CCC(=O)c1ccc2ccccc2c1
inactive: [4] 100 % of control | [5] 104 % of control | [6] 100 % of control

N=C1SCC(=O)N1CCN1C(=N)SCC1=O
inactive: [13] 101 % of control | [14] 90 % of control | [15] 97 % of control

Cc1ccc(Nc2nc(N)nc(CNc3ccc(Cl)cc3)n2)cc1
inactive: dose: 100.0 mg/kg/injection, schedule: Q04DX003 (ip), vehicle: saline with Tween-80 89 % of control | dose: 200.0 mg/kg/injection, schedule: Q04DX003 (ip), vehicle: saline with Tween-80 97 % of control | dose: 400.0 mg/kg/injection, schedule: Q04DX003 (ip), vehicle: saline with Tween-80 89 % of control

Cc1cc([N+](=O)[O-])ccc1NC(=O)c1c(Cl)c(Cl)c(C(=O)Nc2ccc([N+](=O)[O-])cc2C)c(Cl)c1Cl
inactive: [1] 101 % of control | [2] 94 % of control | [3] 103 % of control
